{
  "source": "patent US20120053119A1",
  "about": "“THERAPEUTIC METHOD FOR INCREASING PANCREATIC BETA CELL MASS” (priority 2009, published 2012)",
  "type_in_all_cases": "cell-based",
  "key": {"[1]": {"test_system": "prohormone convertase PC1/3", "experiment": "PC1/3 expression by QPCR in alphaTC-1 cells", "conditions": "by one hour after addition of SDF-1, QPCR", "text": "FIG. 19. […] Determined by QPCR. High priority experiments planned are to examine PC1/3 protein expression in isolated mouse islets using Western immunoblot, immunocytochemistry, and bioassays for active PC 1/3."}, "[2]": {"test_system": "INS-1 cells", "experiment": "ATP-lite cell viability assay, serum deprivation, SDF-1 with AMD3100", "conditions": "serum-free medium, SDF-1 2 nM, day 6", "experimental": "ATP lite cell viability assay: INS-1 cells were plated in 96 well plates. SDF-1 (2 nM) and AMD3100 were added at day 0, 2, 4 and cell viability was measured at day 6 using relative light units (RLU) as compared to control. N=6.\nINS-1 cells were plated in 96 well plates in control medium (no serum) or a medium containing 2% serum. SDF-1 (2 nM) and SDF-1 (2 nM) along with various concentrations of AMD3100 (2 uM, 0.4 uM, 80 nM, 16 nM) were added to different cell groups incubated in serum-free medium at days 0, 2, 4, and cell viability was measured at day 6 using relative light units (RLU) as compared to control."}, "[3]": {"test_system": "INS-1 cells", "experiment": "Real time RT-PCR of beta-catenin and cyclin D1 mRNA in INS-1 cells", "conditions": "SDF-1 4 hr, relative to vehicle-treated control", "experimental": "FIG. 9. […] Data are normalized by using the housekeeping gene GADPH as an internal control and represent means±S.D. of three independent experiments. Statistical significance is depicted as (p<0.01) when compared with control values.\nGene expression profiling on focused microarrays INS-1 cells were untreated or treated with 10 nM SDF-1 for 4 hrs. Total RNA was isolated and Biotin-labeled complimentary RNAs were generated using the TrueLabeling-AMP Linear RNA Amplification Kit (SuperArray Bioscience Corp.) The Wnt-signaling pathway-focused microarray filters (118 probes) (SuperArray Bioscience Corp.) were hybridized with these biotin-labeled targets (5 microg/array at 60 C overnight. The filters were washed and subsequently incubated with alkaline phosphatase-conjugated streptavidin and CDPStar substrate. The Chemiluminescent images were captured using Kodak Digital Station 440 (Perkin Elmer). For quantification, the spot intensity was measured and normalized to the value of the housekeeping gene GAPDH. Fold-changes in gene expression levels were determined by comparisons of hybridization densities of SDF-1 treated versus untreated INS-1 cells. Real time RT-PCR was carried out by using the SYBR® Green QPCR kit (Stratagene). Briefly, INS-1 cells were treated with 10 nM SDF-1 or PBS vehicle control for 4 h. […]"}, "[4]": {"test_system": "alpha-TC-1 cells", "experiment": "BrdU incorporation cell proliferation assay in alpha-TC-1 cells", "conditions": "serum starved alpha-TC-1 cells, SDF-1 10 nM, 20 hrs", "experimental": "FIG. 16. BrdU incorporation cell proliferation assay. Serum starved alpha-TC-1 cells were treated with either PBS (Control) or SDF-1 (10 nM) for 20 hrs, and their proliferation rate was examined by a BrdU incorporation assay. Data represent means±S.D. of three experiments. Statistical significance is depicted as * (p<0.05) when compared with control values (left bar)."}, "[5]": {"test_system": "alphaTC-1 cells", "experiment": "GLP-1 production in alphaTC-1 cells, RIA of media", "experimental": "FIG. 20. […] Upper panel: AlphaTC-1 and alphaTCdeltaPC2 cells were incubated for 24 hrs and total GLP-1 secreted was measured in the media. Lower panel: AlphaTC-1 cells were treated with SDF-1 or SDF-1+exendin-4 (Exd4) for the times indicated. Media obtained from the cells was assayed with an RIA specific for the active GLP-1. The findings of increased expression of PC1/3 activity, as evidenced by the production of GLP-1. In the absence of PC2 in alphaTCdPC2 cells is consistent with the findings reported by Wideman et al from the Kieffer lab and by Webb et al in the Steiner lab. It appears that in the absence of PC2, PC13 is expressed. The appearance of GLP-1 between 1 and 4 hrs (lower panel) is consistent with the induction of PC1/3 expression shown above in […]. A most high priority in the experiments planned is to determine whether SDF-1 (and cytokines) induce the production of GLP-1 peptide in mouse islets, pending the availability of support required to do these studies."}},
  "data": [
    {"substance": "SDF-1: small, secreted 70 amino acid peptide chemokine, SEQ ID NO: 1, ligand of CXCR4", "values": [
      {"measurement": "PC1/3 expression", "setting": "[1]", "value": "induces prohormone convertase PC1/3 expression"},
      {"measurement": "protection of cell viability in serum deprivation", "setting": "[2]", "value": "protects INS-1 cells from dying"},
      {"measurement": "beta-catenin mRNA expression", "setting": "[3]", "value": 3, "unit": "fold"},
      {"measurement": "cyclin D1 mRNA expression", "setting": "[3]", "value": 2, "unit": "fold"},
      {"measurement": "proliferation of alpha cells (BrdU incorporation)", "setting": "[4]", "value": "stimulates the proliferation"},
      {"measurement": "production of processed GLP-1 peptide", "setting": "[5]", "value": "induces the production of processed GLP-1 peptide"}
    ]}
  ]
}
